Patent US20100055145A1, “STENT COATINGS FOR REDUCING LATE STENT THROMBOSIS” (Biosensors International Group, priority 2008, published 2010)

How the values were obtained:
[1] = Solubility of BIOLIMUS A9; format: physicochemical
[2] = test system: proliferating animal and human smooth muscle cells; assay: Growth inhibition of smooth muscle cells in culture; format: cell-based; conditions: compared with sirolimus
Excerpt: Like sirolimus and everolimus, BIOLIMUS A9 is rapidly absorbed in tissues and is able to reversibly bind to immunophilins (cytoplasmic proteins) found inside living cells.

[3] = Partition coefficient (log P), reverse phase HPLC

With `CCOCCO[C@@H]1CC[C@@H](C[C@@H](C)[C@@H]2CC(=O)[C@H](C)/C=C(\C)[C@@H](O)[C@@H](OC)C(=O)[C@H](C)C[C@H](C)/C=C/C=C/C=C(\C)[C@@H](OC)C[C@@H]3CC[C@@H](C)[C@@](O)(O3)C(=O)C(=O)N3CCCC[C@H]3C(=O)O2)C[C@H]1OC` [BIOLIMUS A9, 42-O-(2-ethoxyethyl)rapamycin] the “Solubility: 25% ethanol in water” value ([1]; 25% ethanol in water) was “Practically insoluble”, the “Solubility: ethanol” value ([1]; ethanol) was “Very soluble” and the “Solubility: ethyl acetate” value ([1]; ethyl acetate) was “Very soluble”. For the same molecule, the “Solubility: methanol” value ([1]; methanol) was “Very soluble”, the “Solubility: water (independent of pH)” value ([1]; water (independent of pH)) was “Practically insoluble” and the “potency of growth inhibition of proliferating smooth muscle cells” value [2] was “potency similar to that of sirolimus”. For the same molecule, the peak blood levels (after stent implantation) was 3 ng/mL, the “peak blood level lower than therapeutic levels of oral sirolimus or everolimus following organ transplant” value (in vivo, po) was 20 fold and the “Partition Coefficient (E Log Poct): Log Pn-octanol” value ([3]; As measured by reverse phase HPLC) was “Log Pn-octanol = 7.63”. The “partition coefficient (log P)” value ([3]; pH 7.40, estimated) was 7.63.
